We go through nine compounds from US6337338B1, “Heteroaryl-aryl ureas as IGF-1 receptor antagonists” (Telik, Inc., priority 1998, dated 2002).

What is called inhibition is the share of the control response that was lost under treatment.

For experiment [1], the target named is T1, IGF-1R-cytoplasmic kinase domain (IGF-1R-CKD; amino acids 959-1367 of IGF-1R) (Homo sapiens, UniProt P08069).
T1 construct: amino acids 959-1367 of IGF-1R
Briefly: IGF-1R substrate assay (KS2 phosphorylation). The class given is biochemical. Particulars: compounds 50 μM; 50 μM ATP; KS2-biotin substrate. Here is the method: Nunc Maxisorp plates were coated with 100 μL 10 μg/mL-streptavidin at […] The plates were washed in 20 mM Tris pH7.6, 150 mM NaCl, 0.05% Tween 20, 0.8 mM Na3VO4, and 0.04% Biocide between all steps of the assay. The plates were blocked in 200 μL 50 mM Hepes/150 mM NaCl/0.1% Triton-X 100 overnight at 4° C. or for 2 hr at 25-37° C.
Aliquots of the IGF-1R-cytoplasmic kinase domain (IGF-1R-CKD; amino acids 959-1367 of IGF-1R) were purified and stored at −80° C. until use. KS2 (GPWLEEEEEAYGWMDF; SEQ ID NO:1), gastrin (1-17) that is a substrate for many tyrosine kinases including the insulin receptor, was synthesized as a biotin conjugate (KS2-biotin) (Baldwin et al., Nature, 301:435-37 (1983)). The assay mixture consisted of 0.2 μg/mL IGF-1R-CKD (concentration adjusted for optimal response), 300-900 nM KS2-biotin (depending on optimal response), 2 mM […], 5 mM MgCl2 (4-10 mM […] can be substituted), compounds to be tested (50 μM) or their vehicle, and 50 μM ATP. The start of phosphorylation begins with the addition of ATP. Incubation was continued for 10-30 minutes, at which time, the reaction was stopped through the quenching the metals with 20 mM EDTA (final concentration).
The reaction was diluted 1:10 in buffer A (2 mM HEPES pH 7.6, 0.05% Triton X-100, 0.05% bovine serum albumin (BSA)) and 100 μL was captured onto washed, coated and blocked, streptavidin Nunc Maxisorp plate, overnight at 4° C. or 2 hr at 37° C. Anti-phosphotyrosine antibody (12.5 ng/well) conjugated to horseradish peroxidase (RC20:HRPO by Transduction Laboratories ) was diluted into 0.5X Buffer B (25 mM Hepes pH7.6, 75 mM NaCl, 0.025% Tween 20, 2 mM Na3VO4+1% BSA) and incubated for 1.5 to 2 hr at 25° C. The phosphorylated substrate was measured by developing the plate with 100 μL 3′, 3′, 5,5′ tetramethylbenzidine (TMB), and quantified using a plate reader.

In a further experiment the test system is MCF-7 or MCF-10 cells. The experiment is described as follows: Cell proliferation assay (CellTiter 96, MTS). Format: cell-based. Conditions: 1 nM IGF-1, 48 h, FIG. 2. Here is the method: 5000 cells (MCF-7 or MCF-10) were plated into 96 well plates and grown for 24 h as in Example 4, above. Cells were washed in serum free DMEM, then 100 μl media and 1 nM IGF-1 were added to wells in the presence of or absence of compound 5 (see Example 2) and hormone. After 48 h, viability was determined by CellTiter 96™ (Promega). This kit is a chromogenic bioassay procedure for the measurement of cell proliferation. Briefly, 20 μl (3-[4,5,dimethylthiazol-2-yl]-5-[3-carboxymethoxyphenyl]-2-[4-sulfophenyl]-2H-tetrazolium, inner salt (MTS) was added to each well and incubation was continued for 3-4 h. Viable cells reduced the MTS to formazan, which was then measured at 492 nm using an ELISA plate reader. Cell proliferation was calculated based on the increase in the number of viable cells.

A further experiment concerns MCF-7 cells. Briefly: Cell growth inhibition study by protein assay, MCF-7. Particulars: 1 nM IGF-1, 48 h, FIG. 1b. Format: cell-based. On the procedure: 100,000 cells (MCF-7) were plated into 24 well dishes, and grown in complete Dulbecco's modified Eagle's medium (DMEM) supplemented with 10% fetal calf serum (FCS) for 24 h. Cells were washed twice in serum-free DMEM, then 0.5 ml DMEM supplemented with 0^5% FCS […] was added with or without a heteroaryl-aryl compound, compound 5, and in the presence or absence of 1 nM hormone (IGF-1 or insulin, respectively). After 48 h at 37° C., cells were washed twice with phosphate buffered saline (PBS) then solubilized in 0.03% sodium dodecyl sulfate (SDS). Protein was determined using the BCA Protein Assay reagent from Pierce Chemical with BSA serving as a standard.

The subject of a further experiment is MCF-10 cells. The experiment is described as follows: Cell growth inhibition study by protein assay, MCF-10. Conditions: 1 nM IGF-I, FIG. 1a. The class given is cell-based. On the procedure:
MFC-10 cells were plated as above in DMEM/Ham's F12 medium (DMEM/F12) supplemented with 5% horse serum, 8 ng/ml epidermal growth factor (EGF), 0.5 μg/ml hydrocortisone, 0.1 μg/mL cholera toxin. After 24 hr, cells were washed twice in serum free DMEM/F12, then 0.5 ml DMEM/12 with 0.5% horse serum added with or without test compound, and in the […] of 1 nM IGF-I.

T1 sequence (P08069 959-1367): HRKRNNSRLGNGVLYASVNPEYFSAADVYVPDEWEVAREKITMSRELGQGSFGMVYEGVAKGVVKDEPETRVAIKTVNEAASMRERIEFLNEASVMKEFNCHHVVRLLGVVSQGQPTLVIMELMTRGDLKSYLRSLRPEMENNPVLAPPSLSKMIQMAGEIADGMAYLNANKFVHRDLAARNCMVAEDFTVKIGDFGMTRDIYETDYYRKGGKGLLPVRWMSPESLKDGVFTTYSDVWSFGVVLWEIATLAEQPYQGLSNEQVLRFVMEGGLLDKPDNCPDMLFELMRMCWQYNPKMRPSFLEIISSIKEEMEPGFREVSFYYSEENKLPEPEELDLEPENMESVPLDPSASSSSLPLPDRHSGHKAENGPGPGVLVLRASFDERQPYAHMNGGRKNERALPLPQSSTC

In experiment [1], `COc1c(Cl)cccc1NC(=O)Nc1cc(C)nc2ccccc12` [Compound 5, N-(2-methoxy-3-chlorophenyl)-N′-(2-methyl-4-quinolinyl) urea] gave an inhibition at 50 µM of 21%. For the same compound, the “IGF-1R stimulated cell proliferation” value in the experiment with MCF-7 or MCF-10 cells is reported as “decrease in IGF-1R stimulated cell proliferation”. For the same compound, the “IGF-1 stimulated cell growth (protein assay)” value in the experiment with MCF-7 cells and in the experiment with MCF-10 cells was “inhibit IGF-1 stimulated cell growth” throughout.
`COc1ccc(Cl)cc1NC(=O)Nc1cc(C)nc2ccccc12` [Compound 7, N-(2-methoxy-5-chlorophenyl)-N′-(2-methyl-4-quinolinyl) urea] returned an inhibition at 50 µM in experiment [1] of 23%.
On to `Cc1ccc(NC(=O)Nc2cnc3ccccc3c2)cc1Cl` [Compound 8, N-(3-chloro-4-methylphenyl)-N′-(3-quinolinyl) urea], for which, in experiment [1], 50 µM produced 65% inhibition.
Same read-out and setting: for `CCc1ccc(NC(=O)Nc2cccc3cccnc23)cc1` [Compound 9, N-(4-ethylphenyl)-N′-(8-quinolinyl) urea] the value was 33%.
Same read-out and setting: for `O=C(Nc1cccc(Cl)c1)Nc1cnc2ccccc2c1` [Compound 10, N-(3-chlorophenyl)-N′-(3-quinolinyl) urea] the value was 26%; for `COc1c(Cl)cccc1NC(=O)Nc1nccs1` [Compound 11, N-(2-methoxy-3-chlorophenyl)-N′-(1,3-thiazol-2-yl) urea], 21%; for `Cc1ccc(NC(=O)Nc2nccs2)cc1Cl` [Compound 12, N-(3-chloro-4-methylphenyl)-N′-(1,3-thiazol-2-yl) urea], 21%.
On the same count and under the same terms, for `COc1ccccc1NC(=O)Nc1nccs1` [Compound 13, N-(2-methoxyphenyl)-N′-(1,3-thiazol-2-yl) urea] the value was 20%; for `O=C(Nc1cc(Cl)cc(Cl)c1)Nc1nccs1` [Compound 14, N-(3,5-dichlorophenyl)-N′-(1,3-thiazol-2-yl) urea], 17%.
